In ChEMBL document CHEMBL1152934, “Quinazolindione derivatives as potent 5-HT3A receptor antagonists” (Bioorg Med Chem, 2009) one finds IC50 data, which are given here for 7 molecules.

For this assay, the target named is 5-hydroxytryptamine receptor 3A (Mus musculus) (UniProt P23979). Kind of assay: Antagonist activity at 5HT3A receptor expressed in Xenopus oocyte.
Sequence of 5-hydroxytryptamine receptor 3A (Mus musculus) (P23979 whole entry, looked up): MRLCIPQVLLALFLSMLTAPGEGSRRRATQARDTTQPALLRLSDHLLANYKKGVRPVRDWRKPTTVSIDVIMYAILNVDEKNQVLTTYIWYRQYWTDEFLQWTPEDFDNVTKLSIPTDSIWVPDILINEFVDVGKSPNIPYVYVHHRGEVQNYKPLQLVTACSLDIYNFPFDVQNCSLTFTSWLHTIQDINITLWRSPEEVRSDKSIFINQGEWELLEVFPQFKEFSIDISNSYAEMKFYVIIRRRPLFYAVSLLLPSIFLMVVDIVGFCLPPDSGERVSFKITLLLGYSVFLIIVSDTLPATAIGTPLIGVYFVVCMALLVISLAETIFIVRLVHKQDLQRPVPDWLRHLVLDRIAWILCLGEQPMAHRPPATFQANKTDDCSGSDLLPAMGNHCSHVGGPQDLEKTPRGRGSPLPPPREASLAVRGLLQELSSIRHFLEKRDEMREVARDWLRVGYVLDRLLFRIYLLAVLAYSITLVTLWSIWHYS
With `O=C(NCCN1CCCCC1)c1ccc2c(=O)n(Cc3ccccc3Cl)c(=O)[nH]c2c1`, the IC50 (as a rule, the concentration needed to halve the response being measured) was determined as 2.1 µM.
As to `O=C(NCCN1CCOCC1)c1ccc2c(=O)n(-c3ccc(F)cc3)c(=O)[nH]c2c1`, half-maximal inhibition (IC50) was put at 57 µM.
The value for `O=C(NCCN1CCOCC1)c1ccc2c(=O)n(Cc3ccc(F)cc3)c(=O)[nH]c2c1` was 19.8 µM.
The value for `O=C(NCCN1CCOCC1)c1ccc2c(=O)n(Cc3ccc(Cl)cc3)c(=O)[nH]c2c1` was 15.8 µM; that for `CCC1CCCCN1CCNC(=O)c1ccc2c(=O)n(Cc3ccc(Cl)cc3)c(=O)[nH]c2c1` (configuration not stated) was 13.6 µM; that for `CC1CCCCN1CCCNC(=O)c1ccc2c(=O)n(C3CCCCC3)c(=O)[nH]c2c1` (configuration not stated) was 5.9 µM.
The value for `CC1CCCCN1CCCNC(=O)c1ccc2c(=O)n(Cc3ccc(Cl)cc3)c(=O)[nH]c2c1` (configuration not stated) was 11.6 µM.
